Laboratory results taken from patent US7414058B2, “Adenosine A2a receptor antagonists for the treatment of extra-pyramidal syndrome and other movement disorders” (Schering Corporation, priority 2002, dated 2008).

Test system: haloperidol-induced EPS in Cebus apella monkeys
Assay: Haloperidol-induced EPS in sensitized Cebus apella monkeys
Type: in vivo
Conditions: for monkeys in which onset of EPS was prevented: group of seven monkeys
Method: A more complete understanding of the invention may be obtained by reading the following description in conjunction with the appended figures relating to haloperidol-induced EPS in Cebus apella monkeys.
Compound A was administered orally (p.o.) at doses of 0.3-30 mg/kg, in conjunction with haloperidol. The studies were conducted using a within-subjects design such that each monkey received all 6 treatments (vehicle and 5 doses of Compound A) in a crossover, balanced design.

[1] = 1 mg/kg p.o., haloperidol 0.3 mg/kg p.o.
[2] = 10 and 30 mg/kg p.o., haloperidol 0.3 mg/kg p.o.

## Nc1nc2c(cnn2CCN2CCN(c3ccc(F)cc3F)CC2)c2nc(-c3ccco3)nn12 [Compound A]
[1]
  monkeys in which onset of EPS was prevented: one
  delay of the onset of EPS: 1 h
3 mg/kg p.o., haloperidol 0.3 mg/kg p.o.
  monkeys in which onset of EPS was prevented: two
3 mg/kg p.o., in the remaining monkeys, haloperidol 0.3 mg/kg p.o.
  delay of the onset of EPS: ~2 h
[2]
  monkeys in which onset of EPS was prevented: three
  delay of the onset of EPS (average): 2.3 to 2.9 h
Compound A 0.3-30 mg/kg p.o. with haloperidol 0.3 mg/kg p.o., FIG. 1A, seven monkeys, crossover
  maximum EPS score: dose-dependent reduction
Compound A 0.3-30 mg/kg p.o. with haloperidol 0.3 mg/kg p.o., FIG. 1B, vs vehicle
  delay in the onset of EPS (dose dependence): dose-dependent delay
